Like-named read-outs stand apart in the source and are kept apart here.
How the values were obtained:
[1] = test system: human pancreatic adenocarcinoma cell line Capan-1; assay: Apoptosis by DAPI labeling and fluorescence microscope; assay type: cell-based; settings: positive control, 10 μg/mL, 24 h
Experimental: The studies of possible induction of apoptosis by the PCI were done with the human pancreatic adenocarcinoma cell line Capan-1. The detailed procedure that was employed is as follows:
1. 5×10^5 cells were seed in the chambers/slides and were cultured for 3 o 4 days (until the moment in which, through microscope observation, they presented 75% of confluence). The cells were cultured in DMEM+10% FBS.
2. […] A positive control was added, cysplatinum, at a concentration of 10 μg/mL (a drug which induces apoptosis in various tumor cell lines, Borner, M. M., et al. (1995) Cancer Res., 55: 2122-2128. The incubation period was 24 h.
3. The medium was removed after incubation and the chamber was washed with 2 mL of PBS.
5. Cells were fixed with 2 mL of 2% formaldehyde for 20 min at 4° C.
6. The plates were washed again with 2 mL of PBS for 5 min at room temperature.
7. Cell membranes were permeabilized with 0.25% Triton ×100 in PBS for 5 min at 4° C.
8. Washed with PBS for 5 min at room temperature.
9. The cells were labeled with DAPI at a final concentration of 2 μg/mL for 50 min in darkness at room temperature.
10. The preparation was fitted with the fluoroprep medium and it was examined through the fluorescence microscope.
% apoptosis=(number of apoptotic cells/total number of cells)×100

[2] = test system: human pancreatic adenocarcinoma cell line Panc-1; assay type: cell-based; settings: SFM, 72 h
Experimental: The tests that were carried out growing in free bovine fetal serum medium were very similar to those used in the line Capan-1 described in Section 4.B.2.b. The protocol employed is as follows:
1. A culture plate with 96 wells, in 42 of which 5,000 cells were seed per well. The cells were placed in full medium (RPMI+10%FBS).
2. After 48 h, after the cells had adhered to the surface of the well and they had divided as well, the medium was drained from the wells and to eliminate the rest of the serum, 200 μL of PBS were added to each well.
3. The PBS was removed and 200 μL of RPMI-FBS were added.
4. After 48 h, the medium was removed and the following treatments were applied:
(§1) In 6 wells (control): 200 μL of serum-free medium (SFM) were added.
In 6 wells, 200 μL of SFM plus the indicated concentration of one of the growth factors and wtPCI at a final concentration of 50 μg/mL were added.
In 6 wells, 200 μL of SFM plus the indicated concentration of one of the growth factors and PCIdelYVG at a final concentration of 46 μg/mL were added.
In 6 wells, 200 μL of SFM plus the indicated concentration of one of the growth factors and tail at a final concentration of 6.4 μg/mL were added.
In 6 wells, 200 μL of SFM plus the indicated concentration of one of the growth factors and wtPCI at a final concentration of 50 μg/mL combined with tail at a final concentration of 6.4 μg/mL were added.
In 6 wells, 200 μL of SFM plus the indicated concentration of one of the growth factors and PCIdelYVG at a final concentration of 46 μg/mL combined with tail at a final concentration of 6.4 μg/mL were added.
The cells were kept in an incubator at 37° C., 87% of relative humidity and 10% of CO2.
5. After 72 h, the cell growth per well was evaluated using the method detailed in the protocol of Section 4.B.2.a.

[3] = test system: human pancreatic adenocarcinoma cell line Capan-1; assay type: cell-based; settings: SFM, 72 h
Experimental: Other kinds of tests were also carried out, the cells growing in serum-free medium as well; these were studies at short periods of time, 72 h, and of competitiveness with a growth factor plus wtPCI, PCIdelYVG or tail. […] The protocol employed was as follows:
1. In a culture plate of 96 wells, in 42 of which 5,000 cells per well were seed. The cells were placed in full medium (DMEM+10%FBS).
2. After 72 h, once the adhesion of the cells to the surface of the well had taken place, as well as their division, the medium was removed from the wells and to eliminate the remainder of the serum, 200 μL of PBS were added to each well.
3. The PBS was removed and 200 μL of DMEM-FBS were added.
4. After 24 h, the medium was removed and the following treatments were applied:
as §1
200 μL of SFM plus the indicated concentration of one of the growth factors and wtPCI were added in 6 wells at a final concentration of 50 μg/mL.
In 6 wells, 200 μL of SFM plus the indicated concentration of one of the growth factors and PCIdelYVG were added at a final concentration of 46 μg/mL. […]
4. Cells were kept in an incubator at 37° C., 87% of relative humidity and 10% of CO2.
5. After 72 h, the cellular growth per well was evaluated using the method detailed in the protocol of Section 4.B.2.a.

[4] = test system: human pancreatic adenocarcinoma cell line Panc-1; assay type: cell-based; settings: SFM, 72 h; remark: listed apart in the source
[5] = target: T1, carboxypeptidase (Bos taurus, UniProt P00730); assay: Carboxypeptidase inhibiting effect; assay type: biochemical
T1 sequence (P00730 111-419): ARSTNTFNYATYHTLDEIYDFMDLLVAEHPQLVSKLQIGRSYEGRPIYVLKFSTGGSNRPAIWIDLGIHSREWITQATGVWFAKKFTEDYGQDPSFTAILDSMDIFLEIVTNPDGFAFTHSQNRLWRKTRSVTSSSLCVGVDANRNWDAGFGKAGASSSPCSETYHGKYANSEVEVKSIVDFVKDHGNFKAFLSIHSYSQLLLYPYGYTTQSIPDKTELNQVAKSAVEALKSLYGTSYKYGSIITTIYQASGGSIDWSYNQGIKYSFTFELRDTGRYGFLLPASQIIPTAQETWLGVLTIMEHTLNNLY
Experimental: All the buffers employed in HPLC and FPLC are prepared employing Mono-Q water and are filtered through membranes of 0.22 μm and degassed immediately before use. The HPLC, as well as the FPLC, are done at room temperature. The process of purification is done by determining the global concentration of proteins after each step using the Bradford method; the concentration of recombinant PCI is evaluated by measuring its inhibitory effect of CPA using appropriate blanks; or, in the case of PCI mutants with little or zero carboxypeptidase activity, by ELISA with rabbit polyclonal antibodies against PCI.
To determine whether the inhibiting effect on cellular growth of the PCI is related to its carboxypeptidase inhibiting effect or with its specific knotin topology, tests of cellular inhibition with a mutant form were carried out. Concretely, the deletion of the three C-terminal amino acids was designed resulting in the form PCIdelY37V38G39 (or PCIdelYVG). This form was designed and constructed because it keeps the structure and the topology of wild PCI. This is inferred from the fact that it presents a similar chromatographic behaviour to that of the wild form and that it can be detected by antibodies antiwtPCI. Also by means of computer simulation (by molecular dynamics using the GROMOS programme) it presented a similar behaviour to the wild form after 300 ps of dynamics.

[6] = test system: human pancreatic adenocarcinoma cell line Capan-1; settings: serum-free medium, 16 days
Experimental: Two kinds of tests were carried out; the first one is the treatment of cells of the human pancreatic adenocarcinoma cell line Capan-1 with wtPCI and tail added to the culture medium in absence of serum.
In a culture plate with 96 wells, 5,000 cells were seed per well, in 24 of them. The cells were placed in full medium (DMEM+10%FBS).
In 6 wells (control): 200 μL of serum-free medium (DMEM-FBS) and free of tail were added.
200 μL of serum-free medium with 50 μg/mL of native PCI were added.
In 6 wells, 200 μL of serum-free medium with 0.128 μg of tail/mL were added.
In 6 wells, serum-free medium with 6.4 μg of tail/mL was added.
The medium contained in the wells was changed every 3-4 days. The old medium was sucked out using a Pasteur pipette.
After 16 days, the cell growth per well was evaluated according to the method detailed in the protocol of Section 4.B.2.a.

[7] = test system: Panc-1 cells; assay: Internalization studies by means of fluorescence (RITC labeling), Panc-1; assay type: cell-based, human; settings: accumulation around the nucleus
Experimental: In fluorescence studies, the possible internalization of PCI, labeled with a fluorophore, by Capan-1 and Panc-1 cell lines was followed by microscope observation.
In the incorporation studies of the RITC-PCI, the protocol of Billings, P. C. et al. (1989) Carcinogenesis, 10: 687-691, slightly modified, was followed:
1. 200,000 cells of the cell line to be studied were placed in culture chambers/slides and were left there to grow for 48 h.
2. The medium of the cells growing in exponential phase was changed and 20 or 50 μg/mL of RITC-PCI were added to the new medium, keeping it in the medium for a variable incubation time ranging from 1 minute to 4 h inside the incubator.
3. The medium was retired after the incubation and the monolayer of the cells was washed with PBS for 10 min in darkness.
4. The cells were fixed with 350 μl of a solution 50% methanol—50% acetone for 8 min at 4° C. in a dark and humid chamber.
5. The cells were washed again with PBS for 10 min in darkness.
6. The preparations were dried with absorbing paper being very careful not to touch the cells. The preparations were fitted with PBS: Glycerol (1:1) and were sealed with nail polish.
The labeling protocol was exactly the same as that of the wild PCI, as described in Section 4.F.1.b. The studies of incorporation of the labeled mutant were carried out as described in Section 4.F.1.c.

[8] = test system: human pancreatic adenocarcinoma cell line Panc-1; assay: Proliferation test with tetrazolium salts, Panc-1 in medium with serum, 10 days; assay type: cell-based
Experimental: It was performed the same kind of test which had been carried out for the Capan-1 cell line but with Panc-1, another human pancreatic adenocarcinoma cell line. We are referring to a human pancreatic adenocarcinoma ATCC nr. CRL 1469, established by Lieber, M. et al. (1975) In. J. Cancer, 15: 741-747. Of ductal origin, it is not highly differentiated.
As for the Capan-1 cell line, two types of experiments were carried out with and without bovine fetal serum. The protocol followed for the test, growing in RPMI plus bovine fetal serum, was the same as that used with Capan-1 cell line but with small variations, given the difference in the duplication times between the two lines. The tests were carried out with the native PCI (wtPCI) and with the mutant PCI (PCIdelYVG). The protocol is detailed as follows:
1. In a culture plate with 96 wells, 2,000 cells were seed in 30 wells for the tests with wtPCI and in 36 for the tests with PCIdelYVG. From these 30 or 36:
In 6 wells (control), 200 μL of full medium (RPMI+10%FBS) without wtPCI or PCIdelYVG/mL were added. […]
2. The cells were kept in an incubator at 37° C., 87% of relative humidity and 10% of CO2. The old medium was sucked out with a Pasteur pipette. Medium free of wtPCI or PCIdelYVG was added to the control wells and to the others a medium was added with identical concentration of wtPCI or PCIdelYVG.
3. After 10 days, the cell growth was evaluated per well, according to the method detailed in the protocol of Section 4.B.2.a.

[9] = Insulina 5 mg/mL + 6.4 mg/mL tail
[10] = EGF 10 ng/mL + 46 mg/mL PCIdelYVG
[11] = Insulin 5 mg/mL + 46 mg/mL PCIdelYVG

N.N.[Cl][Pt][Cl] [cysplatinum, reference compound]
% Apoptosis [1]: 5.19%

EGF: epidermic growth factor [reference compound]
Growth (Percentage in relation to the average of the controls) ([2]; EGF 10 ng/mL alone): 63.52% | inhibition in relation to the control situation ([2]; EGF alone, in the tested concentration (10 ng/mL)): 36% | Growth (Percentage in relation to the average of the controls) ([3]; EGF 10 ng/mL alone): 106.66% | growth in relation to the control situation ([3]; EGF alone, at the tested concentration (10 ng/mL)): no differences in relation to the control situation

H-GPYVG-OH [tail, H-Gly-Pro-Tyr-Val-Gly-OH]
Growth (Percentage in relation to the average of the controls) ([4]; EGF 10 ng/mL + 6.4 mg/mL tail): 16.23% | Growth (Percentage in relation to the average of the controls) [4, 9]: 24.84% | Growth (Percentage in relation to the average of the controls) ([3]; EGF 10 ng/mL + 6.4 mg/mL tail): 28.33% | Growth (Percentage in relation to the average of the controls) [3, 9]: 52.58% | carboxypeptidase inhibitory activity [5]: lacks carboxypeptidase inhibitory activity | Growth (Percentage in relation to the average of the controls) ([6]; 0.128 mg/mL tail): 81.95% | Growth (Percentage in relation to the average of the controls) ([6]; 6.4 mg/mL tail): 77%

IGF-1: growth factor 1 of the insulin type [reference compound]
stimulation in relation to control ([2]; IGF-1 alone (20 ng/mL)): 26% | stimulation in relation to the control ([3]; IGF-1 alone (20 ng/mL)): 58%

Insulin: growth factor used to stimulate proliferation [reference compound]
Growth (Percentage in relation to the average of the controls) ([2]; Insulin 5 mg/mL alone): 193.47% | stimulation in relation to control ([2]; insulin alone (5 μg/mL)): 93% | Growth (Percentage in relation to the average of the controls) ([3]; Insulin 5 mg/mL alone): 292.86% | stimulation in relation to the control ([3]; insulin alone (5 μg/mL)): 193%

PCIdelYVG: recombinant PCI mutant with deletion of the three C-terminal amino acids Tyr-Val-Gly (EQHADPICNKPCKTHDDCSGAWFCQACWNSARTCGP; Potato; (1)..(39) Isoform IIa of the potato carboxypeptidase inhibitor)
incorporation of RITC-labeled mutant by the cells [7]: is incorporated by the cells | Growth (Percentage in relation to the average of the controls) [4, 10]: 5.53% | Growth (Percentage in relation to the average of the controls) [4, 11]: 21.41% | inhibition of the growth ([8]; 46 μg/mL concentration): 15% | Growth (Percentage in relation to the average of the controls) ([8]; 0.092 mg/mL PCIdelYVG, RPMI+10%FBS): 112.92% | Growth (Percentage in relation to the average of the controls) ([8]; 0.92 mg/mL PCIdelYVG): 105.43% | Growth (Percentage in relation to the average of the controls) ([8]; 23 mg/mL PCIdelYVG): 94.85% | Growth (Percentage in relation to the average of the controls) ([8]; 46 mg/mL PCIdelYVG): 85.51% | stimulus of the growth ([8]; concentration 0.092 μg/mL): 13% | Growth (Percentage in relation to the average of the controls) [3, 10]: 40.83% | Growth (Percentage in relation to the average of the controls) [3, 11]: 44.60% | Ki [5]: micromolar level | decrease of the inhibitory capacity ([5]; compared with wild PCI): 3 orders of magnitude
